pIC50: −log10 of the molar value. Starred links: 1 amine or outer side, 2 acyl side, 3 side chain; linkers in the order of their positions; H or OH if unused. Positions of bridges follow the written chain, without caps; N, C: chain ends. Non-standard residues stand in square brackets, D forms with d. Residues, ends and D or L forms follow the SMILES beside them. *: point of attachment. N(3,4-(MeO)2phenethyl)Gly = COc1ccc(CCNCC(=O)O)cc1OC; Phe(3,4-F2) = N[C@@H](Cc1ccc(F)c(F)c1)C(=O)O; Phe(3-Cl) = N[C@@H](Cc1cccc(Cl)c1)C(=O)O; Phe(4-F) = N[C@@H](Cc1ccc(F)cc1)C(=O)O; X5 = CCN(CC)CCC[C@H](N[*:1])C(=O)[*:2]; Bta = N[C@@H](Cc1csc2ccccc12)C(=O)O; Hyp = O=C(O)[C@@H]1C[C@@H](O)CN1; PhLac = O=C(O)[C@@H](O)Cc1ccccc1; d(hLeu) = CC(C)CC[C@@H](N)C(=O)O; hCit = NC(=O)NCCCC[C@H](N)C(=O)O; 2Thi = N[C@@H](Cc1cccs1)C(=O)O; dCha = N[C@H](CC1CCCCC1)C(=O)O; Phg = N[C@H](C(=O)O)c1ccccc1; hLeu = CC(C)CC[C@H](N)C(=O)O; hSer = N[C@@H](CCO)C(=O)O; NMeA = CN[C@@H](C)C(=O)O; Nle = CCCC[C@H](N)C(=O)O; Orn = NCCC[C@H](N)C(=O)O; Aze = O=C(O)[C@@H]1CCN1; Fluoroacetyl = O=C(CF)*; Dap = NC[C@H](N)C(=O)O; NBuGly = CCCCNCC(=O)O; βAla = NCCC(=O)O; tBu = CC(C)(C)*

For the first experiment, the target named is T1, human C5aR(CD88) (Homo sapiens, UniProt P21730).
T1 construct: expressed in transfected cells; host or cells: rat basophilic leukemia cells (RBL)
T1 sequence (P21730 1-350): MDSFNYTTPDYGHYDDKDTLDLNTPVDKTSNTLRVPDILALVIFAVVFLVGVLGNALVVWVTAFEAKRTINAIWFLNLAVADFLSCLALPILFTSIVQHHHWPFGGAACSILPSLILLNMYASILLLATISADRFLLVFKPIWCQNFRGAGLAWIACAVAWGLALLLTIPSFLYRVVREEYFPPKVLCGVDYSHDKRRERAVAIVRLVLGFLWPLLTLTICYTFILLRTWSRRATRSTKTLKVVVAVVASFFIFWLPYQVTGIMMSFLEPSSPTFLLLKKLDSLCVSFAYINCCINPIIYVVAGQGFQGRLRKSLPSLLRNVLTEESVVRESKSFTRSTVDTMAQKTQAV
Briefly: Determination of the IC50 value in an enzyme release assay (functional assay, antagonistic activity). Type of experiment: cell-based. Particulars: activity (group), antagonistic activity; IC50 group in enzyme release assay, RBL cells expressing human C5aR(CD88).
The molecule `NCCC[C@H](NC(=O)[C@H](Cc1ccccc1)NC(=O)CF)C(=O)N1CC[C@H]1C(=O)N[C@H](CC1CCCCC1)C(=O)N[C@@H](Cc1csc2ccccc12)C(=O)N[C@@H](Cc1ccccc1)C(N)=O` [Compound 321, FAc-Phe-Orn-Aze-cha-Bta-Phe-NH2] (Fluoroacetyl-F[Orn][Aze][dCha][Bta]F-NH2) showed a pIC50 of 7.30 to 7.70.

Still in this experiment, the particulars now being: antagonistic activity; IC50 group in enzyme release assay, RBL cells expressing human C5aR(CD88); read-out: activity (group).
`CCCCN(CC(=O)N1CCC[C@H]1C(=O)N[C@H](CC1CCCCC1)C(=O)N[C@@H](Cc1c[nH]c2ccccc12)C(=O)N[C@@H](Cc1ccccc1)C(N)=O)C(=O)[C@H](Cc1ccccc1)NC(C)=O` [Compound 148, Ac-Phe-N(nBu)-CH2—CO-Pro-cha-Trp-Phe-NH2] (Ac-F[NBuGly]P[dCha]WF-NH2): the pIC50 was 5.70 to 6.70.
Same read-out and setting: under `CC(=O)N[C@@H](Cc1ccccc1)C(=O)N[C@H]1CCCNC(=O)[C@H](CCCNC(=N)N)NC(=O)[C@H](Cc2c[nH]c3ccccc23)NC(=O)[C@@H](CC2CCCCC2)NC(=O)[C@H](C)N(C)C1=O` [compound 46] (Ac-F[Orn][NMeA][dCha]WR; lactam 2-C) stands 7.30 to 7.70; under `CC(=O)N[C@@H](Cc1ccccc1)C(=O)N[C@@H](CCCN)C(=O)N1CCC[C@H]1C(=O)N[C@H](CCC(C)C)C(=O)N[C@@H](Cc1csc2ccccc12)C(=O)N[C@@H](Cc1ccc(F)cc1)C(N)=O` [Compound 279, Ac-Phe-Orn-Pro-hle-Bta-Pff-NH2] (Ac-F[Orn]P[d(hLeu)][Bta][Phe(4-F)]-NH2), 6.70 to 7.30; under `CCCC[C@@H]1NC(=O)[C@H](Cc2c[nH]c3ccccc23)NC(=O)[C@@H](CC2CCCCC2)NC(=O)[C@@H]2CCCN2C(=O)[C@@H](NC(=O)[C@H](Cc2ccccc2)NC(=O)CON=CC(O)C(O)C(O)C(O)CO)CCCNC1=O` (single isomer, unassigned) [Compound 334, Fck-Phe-[Orn-Pro-cha-Trp-Nle]], 6.70 to 7.30.
Same read-out and setting: the same measure for `COc1ccc(CCN(CC(=O)N[C@H](CC2CCCCC2)C(=O)N[C@@H](Cc2csc3ccccc23)C(=O)N[C@@H](Cc2ccccc2)C(N)=O)C(=O)[C@H](CCCN)NC(=O)[C@H](Cc2ccccc2)NC(C)=O)cc1OC` [Compound 242, Ac-Phe-Orn-G31-cha-Bta-Phe-NH2] (Ac-F[Orn][N(3,4-(MeO)2phenethyl)Gly][dCha][Bta]F-NH2): 6.70 to 7.30; for `CC(=O)N[C@@H](Cc1ccc(F)cc1)C(=O)N[C@@H](CCCN)C(=O)N1CCC[C@H]1C(=O)N[C@H](CC1CCCCC1)C(=O)N[C@@H](Cc1csc2ccccc12)C(=O)N[C@@H](Cc1ccccc1)C(N)=O` [Compound 169, Ac-Pff-Orn-Pro-cha-Bta-Phe-NH2] (Ac-[Phe(4-F)][Orn]P[dCha][Bta]F-NH2): 7.30 to 7.70; for `CC(=O)N[C@H](C(=O)N[C@@H](CCCN)C(=O)N1CCC[C@H]1C(=O)N[C@H](CC1CCCCC1)C(=O)N[C@@H](Cc1csc2ccccc12)C(=O)N[C@@H](Cc1ccccc1)C(N)=O)c1ccccc1` [Compound 126, Ac-Phg-Orn-Pro-cha-Bta-Phe-NH2] (Ac-[Phg][Orn]P[dCha][Bta]F-NH2): 6.70 to 7.30.
Still for that read-out and setting: the same measure for `CC(=O)N[C@@H](Cc1ccccc1)C(=O)N[C@@H](CCCN)C(=O)N1CC[C@H]1C(=O)N[C@H](CC1CCCCC1)C(=O)N[C@@H](Cc1csc2ccccc12)C(=O)N[C@@H](Cc1ccccc1)C(N)=O` [Compound 52, Ac-Phe-Orn-Aze-cha-Bta-Phe-NH2] (Ac-F[Orn][Aze][dCha][Bta]F-NH2): 7.70 to 8.00.
Turning to `CCCC[C@@H]1NC(=O)[C@H](Cc2c[nH]c3ccccc23)NC(=O)[C@@H](CCC(C)C)NC(=O)[C@@H]2C[C@@H](O)CN2C(=O)[C@@H](NC(=O)[C@@H](O)Cc2ccccc2)CCCNC1=O` [Compound 392, Ohf-[Orn-Hyp-hle-Trp-Nle]] (H-[PhLac][Orn][Hyp][d(hLeu)]W[Nle]; lactam 2-C), the pIC50 was 6.70 to 7.30.
Same read-out and setting: the same measure for `CC(=O)N[C@@H](CCCNC(=N)N)C(=O)N[C@@H](Cc1ccccc1)C(=O)N[C@@H](CCCN)C(=O)N1CC[C@H]1C(=O)N[C@H](CC1CCCCC1)C(=O)N[C@@H](Cc1csc2ccccc12)C(=O)N[C@@H](Cc1ccccc1)C(N)=O` [Compound 137, Ac-Arg-Phe-Orn-Aze-cha-Bta-Phe-NH2] (Ac-RF[Orn][Aze][dCha][Bta]F-NH2): 7.30 to 7.70; for `O=C1NCCC[C@H](NCc2ccccc2)C(=O)N2CCC[C@H]2C(=O)N[C@H](CC2CCCCC2)C(=O)N[C@@H](Cc2c[nH]c3ccccc23)C(=O)N[C@H]1Cc1ccccc1` [Compound 57, Ph-CH2-[Orn-Pro-cha-Trp-Phe]]: 7.30 to 7.70; for `CC(=O)N[C@@H](Cc1ccccc1)C(=O)N[C@H]1CCCNC(=O)[C@H](C)NC(=O)[C@H](Cc2c[nH]c3ccccc23)NC(=O)[C@@H](CC2CCCCC2)NC(=O)[C@@H]2CCCN2C1=O` [Compound 39] (Ac-F[Orn]P[dCha]WA; lactam 2-C): < 5.70.
`CC(C)CC[C@H]1NC(=O)[C@@H]2C[C@@H](O)CN2C(=O)[C@@H](NC(=O)[C@@H](N)Cc2ccccc2)CCCNC(=O)[C@H](CC(C)C)NC(=O)[C@H](Cc2cccc(Cl)c2)NC1=O` [Compound 361, H-Phe-[Orn-Hyp-hle-Mcf-Leu]] (H-F[Orn][Hyp][d(hLeu)][Phe(3-Cl)]L; lactam 2-C): the pIC50 is 6.70 to 7.30.
The same measure, in the same setting: under `CC(=O)N[C@@H](Cc1ccccc1)C(=O)N[C@@H](CCCN)C(=O)N1CCC[C@H]1C(=O)N[C@H](CC1CCCCC1)C(=O)N[C@@H](Cc1c[nH]c2ccccc12)C(=O)N[C@@H](Cc1cccs1)C(N)=O` [Compound 80, Ac-Phe-Orn-Pro-cha-Trp-Thi-NH2] (Ac-F[Orn]P[dCha]W[2Thi]-NH2) stands 6.70 to 7.30; under `CCN(CC)CCC[C@H](NC(=O)[C@H](Cc1ccccc1)NC(C)=O)C(=O)N1CCC[C@H]1C(=O)N[C@H](CC1CCCCC1)C(=O)N[C@@H](Cc1c[nH]c2ccccc12)C(=O)N[C@@H](Cc1ccccc1)C(N)=O` [Compound 143, Ac-Phe-Orn(Et2)-Pro-cha-Trp-Phe-NH2] (Ac-F[X5]P[dCha]WF-NH2), 6.70 to 7.30.
In the case of `CC(=O)N[C@@H](Cc1ccccc1)C(=O)N[C@@H](CCCN)C(=O)N[C@@H](CCO)C(=O)N[C@H](CC1CCCCC1)C(=O)N[C@@H](Cc1csc2ccccc12)C(=O)N[C@@H](Cc1ccccc1)C(N)=O` [Compound 243, Ac-Phe-Orn-Hse-cha-Bta-Phe-NH2] (Ac-F[Orn][hSer][dCha][Bta]F-NH2), the pIC50 was 6.70 to 7.30.
On the same count and under the same terms, under `CC(=O)N[C@@H](Cc1ccccc1)C(=O)N[C@@H](CCCN)C(=O)N1CCC[C@H]1C(=O)N[C@H](CCC(C)C)C(=O)N[C@@H](Cc1ccc(F)c(F)c1)C(=O)N[C@@H](Cc1ccccc1)C(N)=O` [Compound 283, Ac-Phe-Orn-Pro-hle-Dff-Phe-NH2] (Ac-F[Orn]P[d(hLeu)][Phe(3,4-F2)]F-NH2) stands 6.70 to 7.30.
The same measure, in the same setting: under `CCCC[C@@H]1NC(=O)[C@H](Cc2c[nH]c3ccccc23)NC(=O)[C@@H](CCC(C)C)NC(=O)[C@@H]2C[C@@H](O)CN2C(=O)[C@@H](NC(=O)[C@H](Cc2ccccc2)NC(=O)CCN)CCCNC1=O` [Compound 342, H-Bal-Phe-[Orn-Hyp-hle-Trp-Nle]] (H-[βAla]F[Orn][Hyp][d(hLeu)]W[Nle]; lactam 3-C) stands 6.70 to 7.30; under `CCCC[C@@H]1NC(=O)[C@H](Cc2c[nH]c3ccccc23)NC(=O)[C@@H](CC2CCCCC2)NC(=O)[C@H](CO)NC(=O)[C@@H](NC(=O)[C@@H](N)Cc2ccccc2)CCCNC1=O` [Compound 382, H-Phe-[Orn-Ser-cha-Trp-Nle]] (H-F[Orn]S[dCha]W[Nle]; lactam 2-C), 7.30 to 7.70; under `CC(C)CC[C@@H]1NC(=O)[C@H](Cc2ccc(F)cc2)NC(=O)[C@@H](CCC(C)C)NC(=O)[C@@H]2C[C@@H](O)CN2C(=O)[C@@H](NC(=O)[C@@H](N)Cc2ccccc2)CCCNC1=O` [Compound 363, H-Phe-[Orn-Hyp-hle-Pff-Hle]] (H-F[Orn][Hyp][d(hLeu)][Phe(4-F)][hLeu]; lactam 2-C), 6.70 to 7.30.
As for `CC(=O)N[C@@H](Cc1ccccc1)C(=O)N[C@@H](CN)C(=O)N1CCC[C@H]1C(=O)N[C@H](CC1CCCCC1)C(=O)N[C@@H](Cc1csc2ccccc12)C(=O)N[C@@H](Cc1ccccc1)C(N)=O` [Compound 216, Ac-Phe-Dap-Pro-cha-Bta-Phe-NH2] (Ac-F[Dap]P[dCha][Bta]F-NH2), the pIC50 was 6.70 to 7.30.
The same measure, in the same setting: under `CC(=O)N[C@@H](Cc1ccccc1)C(=O)N[C@@H](CCCN)C(=O)N1CCC[C@H]1C(=O)N[C@H](CCC(C)C)C(=O)N[C@@H](Cc1csc2ccccc12)C(=O)N[C@@H](Cc1ccccc1)C(N)=O` [Compound 280, Ac-Phe-Orn-Pro-hle-Bta-Phe-NH2] (Ac-F[Orn]P[d(hLeu)][Bta]F-NH2) stands 7.30 to 7.70; under `CCCC[C@@H]1NC(=O)[C@H](Cc2c[nH]c3ccccc23)NC(=O)[C@@H](CC2CCCCC2)NC(=O)[C@@H]2CCCN2C(=O)[C@@H](NC(=O)[C@H](Cc2ccccc2)NC(=O)CON=C[C@H](O)[C@@H](O)[C@H](O)[C@H](O)CO)CCCNC1=O` [Compound 333, Fck-[Phe-Orn-Pro-cha-Trp-Nle]], 6.70 to 7.30.
Same read-out and setting: under `CC(=O)N[C@@H](Cc1ccccc1)C(=O)N[C@@H](CCCN)C(=O)N1CCC[C@H]1C(=O)N[C@H](CSC(C)(C)C)C(=O)N[C@@H](Cc1ccc(F)cc1)C(=O)N[C@@H](Cc1ccccc1)C(N)=O` [Compound 266, Ac-Phe-Orn-Pro-ctb-Pff-Phe-NH2] (Ac-F[Orn]P[dC](tBu)[Phe(4-F)]F-NH2) stands 7.30 to 7.70; under `CC(=O)N[C@@H](Cc1ccccc1)C(=O)N[C@H]1CCCNC(=O)[C@H](CCCCNC(N)=O)NC(=O)[C@H](Cc2c[nH]c3ccccc23)NC(=O)[C@@H](CC2CCCCC2)NC(=O)[C@@H]2CCCN2C1=O` [compound 13] (Ac-F[Orn]P[dCha]W[hCit]; lactam 2-C), 5.70 to 6.70.
